Laboratory results as given in patent publication US20050069948A1, “Screening method” (priority 2002, published 2005).

What was measured:
[1] = tested on: Egr-1, TGF-β1, PDGF-B, fibronectin and α1 (I) collagen mRNA in the kidney of Zucker Fatty Rats; experiment: mRNA expression levels in the kidney of Zucker fatty rats (real time quantitative RT-PCR); type: in vivo, rat
Description: (§1) To the control group and the normal control group, i.e., male Zucker lean rats (ZL rat, Charles River Japan Inc.) with the same age, 0.5% methylcellulose 100 cP (Vehicle) was administered once per day everyday. Eight weeks after administration, urine was accumulated for 24 hours, and then the urinary albumin excretion was determined using A/G B Test Wako (Wako Pure Chemical Industries). Nine weeks after administration, the kidneys were collected and stored at −80° C., and subsequently the kidneys were crushed to extract the total RNA. The primers and fluorescent probe were prepared on the basis of the mRNA sequence previously reported, and then the amount of each of individual mRNAs was determined using ABI PRISM 7700 (Applied Biosystems) by the real time quantitative RT-PCR method.

[2] = tested on: male Zucker fatty rat; experiment: Urinary albumin excretion in Zucker fatty rats; type: in vivo
Description: as §1

[3] = biological target: human Egr-1 (human) (UniProt P18146); experiment: plate assay: Egr-1 from HEK293 lysate captured on biotinylated double-stranded DNA with the Egr-1 binding sequence (SEQ ID NO: 10) on a streptavidin plate, detected with anti-Egr-1 polyclonal antibody and HRP anti-rabbit IgG
Chain of human Egr-1 (human) (P18146 whole entry): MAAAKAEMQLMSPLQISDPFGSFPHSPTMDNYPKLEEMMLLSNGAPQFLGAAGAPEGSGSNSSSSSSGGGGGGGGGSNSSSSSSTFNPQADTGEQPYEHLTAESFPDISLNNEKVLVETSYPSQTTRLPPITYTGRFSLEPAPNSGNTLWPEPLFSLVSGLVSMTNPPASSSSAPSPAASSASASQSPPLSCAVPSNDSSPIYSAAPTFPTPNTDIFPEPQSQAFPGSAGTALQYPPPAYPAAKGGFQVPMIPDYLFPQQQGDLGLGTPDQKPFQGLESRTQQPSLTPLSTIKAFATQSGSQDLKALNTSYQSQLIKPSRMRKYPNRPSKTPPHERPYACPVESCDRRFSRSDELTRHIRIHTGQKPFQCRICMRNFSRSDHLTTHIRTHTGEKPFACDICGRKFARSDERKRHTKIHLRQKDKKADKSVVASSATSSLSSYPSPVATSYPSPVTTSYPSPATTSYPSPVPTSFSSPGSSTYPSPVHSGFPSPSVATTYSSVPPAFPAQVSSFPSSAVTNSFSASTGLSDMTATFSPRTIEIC

[4] = tested on: Egr-1 mRNA; experiment: Egr-1 mRNA expression in rat glomerular mesangial cells after FCS or AII stimulus (RT-PCR); type: cell-based; conditions: 30 minutes after FCS (20%) stimulus; Candesartan 10^−5 M added 5 minutes before; relative value, before stimulus = 1; n = 3, Mean
Description: Glomerular mesangial cells ([…] 7) isolated and cultivated from a male Sprague-Dawley rat (SD rat, Japan Crea) of the age of 4 weeks were cultivated in DMEM medium containing 20% fetal calf serum (FCS) for 4 days, and then the cells were cultivated in DMEM containing 0.2% bovine serum albumin for 3 days. To the cells after cultivation, FCS (20%) or angiotensin II (AII) (10^-6M) was added, and then the resulting mixture was reacted at 37° C. for 30 minutes. The AII type I receptor antagonist Candesartan of 10^-5 M as the final concentration was added to the medium 5 minutes prior to the stimulation of FCS or AII. Thirty minutes after FCS or AII stimulus, total RNA was extracted. The primers and fluorescent probe were prepared on the basis of the mRNA sequence previously reported, and subsequently the level of Egr-1 mRNA expression was determined using ABI PRISM 7700 (Applied Biosystems) by the real time quantitative RT-PCR method.

[5] = tested on: Glomerular mesangial cells; experiment: Cytotoxicity by transfection in rat glomerular mesangial cells; type: cell-based; conditions: ODN 20 μM
[6] = tested on: Egr-1 protein; experiment: Egr-1 protein expression in rat glomerular mesangial cells after bFGF stimulus (Western blotting); type: cell-based; conditions: ODN 20 μM for 24 hours, one hour after bFGF (3 ng/ml) stimulus, relative value, control = 1, n = 2-3, Mean
Chain of Egr-1 protein (P08154 whole entry): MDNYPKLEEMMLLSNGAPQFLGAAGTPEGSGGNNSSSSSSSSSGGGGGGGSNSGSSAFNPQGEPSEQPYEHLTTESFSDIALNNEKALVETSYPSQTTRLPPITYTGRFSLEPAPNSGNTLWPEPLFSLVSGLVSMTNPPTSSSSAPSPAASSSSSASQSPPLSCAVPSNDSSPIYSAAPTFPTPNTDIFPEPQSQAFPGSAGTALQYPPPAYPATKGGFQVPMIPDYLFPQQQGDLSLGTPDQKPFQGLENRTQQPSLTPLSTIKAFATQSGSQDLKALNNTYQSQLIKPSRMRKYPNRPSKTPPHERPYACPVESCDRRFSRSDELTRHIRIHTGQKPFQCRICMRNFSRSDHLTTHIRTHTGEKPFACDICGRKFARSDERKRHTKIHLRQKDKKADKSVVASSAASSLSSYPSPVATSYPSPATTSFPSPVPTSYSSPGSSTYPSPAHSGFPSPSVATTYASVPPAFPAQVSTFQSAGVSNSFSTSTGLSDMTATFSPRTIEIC
Text: (§2) Glomerular mesangial cells (passege 4-5) isolated and cultivated from a male SD rat with 4 weeks age were cultivated for 3 to 4 days in DMEM medium containing 20% fetal bovine serum to sub-confluence, and the medium was changed to DMEM containing a 0.2% bovine serum albumin and then the resulting material was subjected to serum starvation. Forty-eight hours after initiation of the serum starvation, Egr-1 AS-ODN (SEQ ID NO: 7) or a Control-ODN (the scrambled ODNs that were matched with the AS-ODN in size and the number of bases, both synthesized by BIOGNOSTIK Corp.) with a concentration of 20 μM was added to the medium and the resultant material was allowed to stand in a CO2 incubator for 24 hours. Thereafter the material was stimulated with a basic fibroblast growth factor (bFGF) (3 ng/ml), and then was reacted at 37° C. for 1 to 2 hours. A protein was extracted from the cell one hour after bFGF stimulus, and total RNA was extracted from a cell two hours after bFGF stimulus. […] The brightness accumulation value of the band thus detected was calculated by a CS Analyzer 1.00a (ATTO). Also, the mRNA expression level of the tissue factor was determined by making the primer and fluorescent probe on the basis of the mRNA sequence previously reported and by using ABI PRISM 7700 (Applied Biosystems) by means of the quantitative RT-PCR method.

[7] = tested on: tissue factor mRNA; experiment: Tissue factor mRNA expression in rat glomerular mesangial cells after bFGF stimulus (quantitative RT-PCR); type: cell-based; conditions: ODN 20 μM for 24 hours, two hours after bFGF (3 ng/ml) stimulus, relative value, control = 1, n = 2-3, Mean
Text: as §2

[8] = ZF rat, nine weeks after administration, relative value, ZL rat = 1, n = 8-9, Mean

CCOc1nc2cccc(C(=O)OC(C)OC(=O)OC3CCCCC3)c2n1Cc1ccc(-c2ccccc2-c2nnn[nH]2)cc1 (stereo not drawn) [Candesartan cilexetil]
Increase in the level of Egr-1, TGF-β1, PDGF-B, fibronectin and α1(I) collagen mRNA expression in the kidney (in words) ([1]; Zucker fatty rat, oral administration once per day for 9 weeks): inhibits the increase
Urinary albumin excretion ([2]; ZF rat, orally once per day, eight weeks after administration, 24 hours urine, n = 8-9, Mean): 61.7 mg/day
Increase in the urinary albumin excretion (in words) ([2]; Zucker fatty rat, oral administration once per day): inhibition of an increase

anti-Egr-1 antigen (rabbit, polyclonal antibody, SANTA CRUZ Corp., sc-189)
absorbance at 450 nm (absorbance (450 nm)) [3]: 0.751

CCOc1nc2cccc(C(=O)O)c2n1Cc1ccc(-c2ccccc2-c2nnn[nH]2)cc1 [Candesartan]
Egr-1 mRNA expression level in the kidney [1, 8]: 1.3
Fibronectin mRNA expression level in the kidney [1, 8]: 1.1
PDGF-B mRNA expression level in the kidney [1, 8]: 1.0
TGF-β1 mRNA expression level in the kidney [1, 8]: 1.2
α1 (I) collagen mRNA expression level in the kidney [1, 8]: 1.6
Egr-1 mRNA expression level [4]: 18.4

AS-ODN: Egr-1 antisense oligodeoxynucleotide (SEQ ID NO: 7), synthesized by BIOGNOSTIK Corp. (antisense GCGGGGTGCAGGGGCACACT; DNA, backbone and methylation of C not given here)
Cytotoxicity by transfection [5]: not observed
Egr-1 protein expression [6]: 2.0
Egr-1 protein expression ([6]; listed as Egr-1 AS-ODN): suppressed
Tissue factor mRNA expression [7]: 1.1
Tissue factor mRNA expression ([7]; listed as Egr-1 AS-ODN): almost completely suppressed
